Laboratory results reported in US6537567B1, “Tissue-engineered tubular construct having circumferentially oriented smooth muscle cells” (Massachusetts Institute of Technology, priority 1997, dated 2003).

How the values were obtained:
Segments of neo-artery = test: Pharmacologic reactivity of vessel segments in myographs; format: cell-based; settings: for constriction response of vessel segment: prostaglandin F2α 10^−5 to 10^−4 M, serotonin 10^−6 to 10^−5 M, endothelin-1 10^−7, resting tension four grams
Experimental: Segments of neo-artery three mm in length were assessed for reactivity to pharmacologic agents using techniques previously reported. Briefly, segments were placed in physiological saline bubbled with 95% O2 and 5% CO2, and mounted on tungsten wires in conventional myographs connected to a pen recorder. Freshly excised segments of rabbit abdominal aorta were used as controls. Vessels were maintained at a resting tension of four grams for 30 minutes prior to testing. Vessels were exposed to indomethacin 10^−5 M, LNNA 10^−4 M, norepinephrine 10^−6 M, prostaglandin F2α10^−5 to 10^−4 M, papavarine 10^−6 to 10^−5 M, serotonin 10^−6 to 10^−5 M, endothelin-1 10^−7 and potassium 30-60 mM. […] In some experiments, the magnitude of the constriction response was augmented by prior exposure to indomethacin.

smooth muscle cell = settings: cited from earlier work
aortic endothelial cell = settings: cited from earlier work
smooth muscle cells = test: Growth of smooth muscle cells under externally applied physical forces; format: cell-based; settings: response to externally applied physical forces such as pulsatile force
Experimental: For use in the methods of the present invention, several variations on standard cell growth media have been developed. […] In addition, for growing any cells which normally produce a substantial collagenous extracellular matrix, an “enhanced cell growth medium” has been developed which comprises standard cell growth medium, as described above, supplemented with 1-10 mM, preferably 5 mM, HEPES buffer; 0.01-0.1 g/L, preferably 0.02-0.06 g/L, Vitamin C; 0.01-0.1 g/L, preferably 0.02-0.06 g/L, proline; 0.01-0.1 g/L, preferably 0.02-0.06 g/L, glycine; 0.01-0.1 g/L, preferably 0.02-0.06 g/L, alanine; and 0.5-5.0 μg/L, preferably 1.0-3.0 μg/L, of a copper salt (e.g., CuSO4). Because Vitamin C has a half-life of only 6-8 hours at 37° C. in culture medium, Vitamin C is preferably replenished daily to enhance collagen synthesis by the cells. In addition, proline, glycine, and alanine are provided in excess to provide adequate amounts of these amino acids for the synthesis of collagen and other extracellular matrix proteins such as elastin. Copper ions are a necessary co-factor for elastin synthesis and, therefore, a source of copper ions (e.g., CuSO4) is preferably included in media used to grow elastin-rich tissues. For the growth of endothelial cells, it is preferred that CS be used rather than FBS. […]

Compound	effect on smooth muscle cell proliferation (smooth muscle cell)	constriction response of vessel segment (Segments of neo-artery)	other results
COc1ccc2c(c1)c(CC(=O)O)c(C)n2C(=O)c1ccc(Cl)cc1 [indomethacin]	–	–	effect of prior exposure on magnitude of the constriction response (Segments of neo-artery; indomethacin 10^−5 M, in some experiments): augmented
aFGF: acidic fibroblast growth factor	stimulate smooth muscle cell proliferation	–	–
NCCc1c[nH]c2ccc(O)cc12 [serotonin]	–	reproducible constriction	–
prostaglandin F2α	–	reproducible constriction	–
VEGF	–	–	effect on aortic endothelial cell growth (aortic endothelial cell): stimulate aortic endothelial cell growth
bFGF: basic fibroblast growth factor	stimulate smooth muscle cell proliferation	–	effect on aortic endothelial cell growth (aortic endothelial cell): stimulate aortic endothelial cell growth
COc1ccc(Cc2nccc3cc(OC)c(OC)cc23)cc1OC [papavarine]	–	–	relaxation response of vessel segment (Segments of neo-artery; papavarine 10^−6 to 10^−5 M): relaxation
endothelin-1 (CSCSSLMDKECVYFCHLDIIW; Endothelin-1; UniProt P05305 53-73, looked up)	–	reproducible constriction	–
[H]/N=C(/N)N[C@H]1[C@H](O)[C@@H](O)[C@H](O[C@@H]2O[C@@H](C)[C@](O)(C=O)[C@H]2O[C@@H]2O[C@@H](CO)[C@H](O)[C@@H](O)[C@@H]2NC)[C@@H](N/C(N)=N\[H])[C@@H]1O [streptomycin]	–	–	effect on development of the desired smooth muscle phenotype (smooth muscle cells): tends to inhibit the development of the desired phenotype
PDGF	stimulate smooth muscle cell proliferation	–	–
